Experimental data taken from US5650430A, “Radicicol derivatives, their preparation and their anti-tumor activity” (Sankyo Company, Limited, priority 1990, dated 1997).
Like-named read-outs stand apart in the source and are kept apart here.

Assays:
mouse fibrosarcoma M5076 = experiment: anti-tumor effect in mice inoculated subcutaneously with M5076 fibrosarcoma; type: in vivo, mouse (female BDF1); details: M5076 s.c. in mice
Procedure: The test animals used were female mice, 8 weeks old, of the BDF1 strain, weighing 20-25 g. The mice were purchased from Charles River Japan Inc., Kanagawa, Japan. The mice were divided into experimental groups, each group containing 6 mice, and all mice within each group were treated identically. Each mouse was inoculated subcutaneouly with 1×10^6viable cells (the number of cells was measured by a dye exclusion method under microscopy) of the mouse fibrosarcoma M5076.
The test compounds (80 mg) listed in the following Table, except radicicol, were dissolved in 0.2 ml of N,N-dimethylacetamide (DMA) and to the solution was added 0.2 ml of 40° C.-warmed HCO60 (polyoxyethylene hydrogenated caster oil 60). Immediately thereafter 3.6 ml of 40° C.-warmed physiological saline was added to form a colloidal solution or a suspension. The final concentration of DMA and HCO60 was 5% v/v, each. Radicicol was dissolved in […] of DMA and the solution was dispersed slowly into 3.75 ml of 10% Emulphor(trade mark)-physiological saline stirred well with a stirring rod. The final concentration of DMA was 6.25%. The solution was administered intravenously (in the case of a suspension it was administered intraperitoneally) on the first, fifth and ninth days following inoculation of the fibrosarcoma cells. The period for which the mice survived and the % inhibition of tumor growth were determined. A control group was treated identically, except that no active compound was administered.
The anti-tumor effect is shown in the following Table as the increase in life span [ILS (%)] and the growth inhibition [GI (%)], calculated from the following equations [R. I. Geran et al., Cancer Chemother. Rept., 3 (1972)]:
Dt=median survival time (days) of mice in the treated group; and
Dc=median survival time (days) of mice in the control group.
In this experiment, Dc was 40-47 days.
TDt=average value of tumor sizes on the fourteenth day in the treated group; and
TDc=average value of tumor sizes on the fourteenth day in the control group tumor size=(tumor length+tumor width )/2.

various types of tumor = experiment: anti-tumor activity against various types of tumor in vivo
Text: It is believed that the relative inactivity in vivo compared to the good activity in vitro may be a result of an instability of the compound to a component of the mammalian metabolism.

fungi (anti-fungal) = details: in words; cited from earlier work
[1] = system: tumor cells of the mouse mastocytoma P-815; details: cited from earlier work
[2] = in words; cited from earlier work
[3] = Mus musculus, 336 h, 200 mg/kg iv on days 1, 5 and 9, tumor size on day 14, read-out: growth Inhibition (%)
[4] = Mus musculus, 200 mg/kg iv on days 1, 5 and 9, median survival vs control (Dc 40-47 days), read-out: ILS (%) (increase in life span)

| Compound | inhibition in vivo at 200 mg/kg (mouse fibrosarcoma M5076; [3]) | ILS at 200 mg/kg (mouse fibrosarcoma M5076; [4]) | other results |
| --- | --- | --- | --- |
| CCCCCCCC/C=C\CCCCCCCC(=O)Oc1cc(OC(=O)CCCCCCC/C=C\CCCCCCCC)c2c(c1Cl)CC(=O)/C=C/C=C\[C@H]1O[C@@H]1C[C@@H](C)OC2=O [72(cis), 14,16-dioleoylradicicol] | 80% | 4% | – |
| CCCCCCCC/C=C/CCCCCCCC(=O)Oc1cc(OC(=O)CCCCCCC/C=C/CCCCCCCC)c2c(c1Cl)CC(=O)/C=C/C=C\[C@H]1O[C@@H]1C[C@@H](C)OC2=O [72(trans), 14,16-dielaidoylradicicol] | 86% | 9% | – |
| CCCCCCCCCCCC(=O)Oc1cc(OC(=O)CCCCCCCCCCC)c2c(c1Cl)CC(=O)/C=C/C=C\[C@H]1O[C@@H]1C[C@@H](C)OC2=O [Compound 17, 14,16-dilauroylradicicol] | 89% | 24% | – |
| CCCCCCCCCCCCC(=O)Oc1cc(OC(=O)CCCCCCCCCCCC)c2c(c1Cl)CC(=O)/C=C/C=C\[C@H]1O[C@@H]1C[C@@H](C)OC2=O [Compound 19, 14,16-ditridecanoylradicicol] | 89% | 9% | – |
| CCCCCCCCCCCCCC(=O)Oc1cc(OC(=O)CCCCCCCCCCCCC)c2c(c1Cl)CC(=O)/C=C/C=C\[C@H]1O[C@@H]1C[C@@H](C)OC2=O [Compound 21, 14,16-dimyristoylradicicol] | 91% | 35% | – |
| CCCCCCCCCCCCCCC(=O)Oc1cc(OC(=O)CCCCCCCCCCCCCC)c2c(c1Cl)CC(=O)/C=C/C=C\[C@H]1O[C@@H]1C[C@@H](C)OC2=O [Compound 23, 14,16-dipentadecanoylradicicol] | 95% | 35% | – |
| CCCCCCCCCCCCCCCC(=O)Oc1cc(OC(=O)CCCCCCCCCCCCCCC)c2c(c1Cl)CC(=O)/C=C/C=C\[C@H]1O[C@@H]1C[C@@H](C)OC2=O [Compound 25, 14,16-dipalmitoylradicicol] | 100% | 43% | – |
| CCCCCCCCCCCCCCCCC(=O)Oc1cc(OC(=O)CCCCCCCCCCCCCCCC)c2c(c1Cl)CC(=O)/C=C/C=C\[C@H]1O[C@@H]1C[C@@H](C)OC2=O [Compound 28, 14,16-diheptadecanoylradicicol] | 95% | 27% | – |
| CCCCCCCCCCCCCCCCCC(=O)Oc1cc(OC(=O)CCCCCCCCCCCCCCCCC)c2c(c1Cl)CC(=O)/C=C/C=C\[C@H]1O[C@@H]1C[C@@H](C)OC2=O [Compound 31, 14,16-distearoylradicicol] | – | – | inhibition in vivo at 200 mg/kg (mouse fibrosarcoma M5076; Mus musculus, 336 h, 200 mg/kg ip on days 1, 5 and 9, tumor size on day 14, read-out: growth Inhibition (%)): 66%; ILS at 200 mg/kg (mouse fibrosarcoma M5076; Mus musculus, 200 mg/kg ip on days 1, 5 and 9, median survival vs control (Dc 40-47 days), read-out: ILS (%) (increase in life span)): -4% |
| CCCCCC/C=C\CCCCCCCC(=O)Oc1cc(OC(=O)CCCCCCC/C=C\CCCCCC)c2c(c1Cl)CC(=O)/C=C/C=C\[C@H]1O[C@@H]1C[C@@H](C)OC2=O [Compound 70, 14,16-dipalmitoleoylradicicol] | 65% | 31% | – |
| CC/C=C\C/C=C\C/C=C\CCCCCCCC(=O)Oc1cc(OC(=O)CCCCCCC/C=C\C/C=C\C/C=C\CC)c2c(c1Cl)CC(=O)/C=C/C=C\[C@H]1O[C@@H]1C[C@@H](C)OC2=O [Compound 76, 14,16-dilinolenoylradicicol] | – | – | ILS (%) (increase in life span) (mouse fibrosarcoma M5076; 200 mg/kg iv on days 1, 5 and 9, median survival vs control (Dc 40-47 days)): 11%; growth Inhibition (%) (mouse fibrosarcoma M5076; 200 mg/kg iv on days 1, 5 and 9, tumor size on day 14): 74% |
| C[C@@H]1C[C@H]2O[C@@H]2/C=C\C=C\C(=O)Cc2c(Cl)c(O)cc(O)c2C(=O)O1 [radicicol] | – | – | anti-tumor activity in vivo (various types of tumor): little anti-tumor activity; inhibition in vivo at 150 mg/kg (mouse fibrosarcoma M5076; Mus musculus, 336 h, 150 mg/kg iv on days 1, 5 and 9, tumor size on day 14, read-out: growth Inhibition (%)): 5%; ILS at 150 mg/kg (mouse fibrosarcoma M5076; Mus musculus, 150 mg/kg iv on days 1, 5 and 9, median survival vs control (Dc 40-47 days), read-out: ILS (%) (increase in life span)): -29%; antibiotic activity (nature of) (fungi (anti-fungal)): strictly anti-fungal; inhibitory effect in vitro on the growth of tumor cells [1]: strong inhibitory effect; effect on the central nervous system [2]: without having any effect on the central nervous system; tranquilizing activity [2]: relatively strong tranquilizing activity |
